{"source": "PubChem BioAssay AID1963960", "about": "(Molecular Pharmacology Branch, DTP, NCI, 2024)", "system": "MDA-MB-468 spheroids with HUVEC/MSC, viability", "experiment": "Anticancer human tumor MDA-MB-468 cell line growth inhibition [PI3K];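 also: spheroids exposed to agents for seven days before readout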;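 as to viability, T/C: 100% = DMSO vehicle control viability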", "details": "for viability, T/C: stronger effect = lower value", "procedure,_shortened": "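Spheroid viability read-out. Co-cultures contained the tumor line plus HUVEC and human MSCs. Each agent was paired with a PI3K inhibitor (inavolisib, alpelisib, duvelisib, copanlisib) across half-log dilutions starting at clinical Cmax, or at 10 microM when Cmax was unknown.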", "key": {"[1]": {"details": "curve of first compound, second compound 0.0316 µM"}, "[2]": {"details": "curve of first compound, second compound 0.1 µM"}, "[3]": {"details": "curve of first compound, second compound 0.316 µM"}, "[4]": {"details": "curve of first compound, second compound 1 µM"}, "[5]": {"details": "second compound 0.0316 µM, first compound 0.0316 µM"}, "[6]": {"details": "second compound 0.0316 µM, first compound 0.1 µM"}, "[7]": {"details": "second compound 0.1 µM, first compound 0.0316 µM"}, "[8]": {"details": "second compound 0.1 µM, first compound 0.1 µM"}, "[9]": {"details": "second compound 0.316 µM, first compound 0.0316 µM"}, "[10]": {"details": "second compound 0.316 µM, first compound 0.1 µM"}, "[11]": {"details": "second compound 1 µM, first compound 0.0316 µM"}, "[12]": {"details": "second compound 1 µM, first compound 0.1 µM"}}, "data": [{"smiles": "CC(=O)c1c(C)c2cnc(Nc3ccc(N4CCNCC4)cn3)nc2n(C2CCCC2)c1=O", "values": [{"measurement": "viability, T/C", "setting": "compound 0.000316 µM", "result": "106% [middle of 4 runs]"}, {"measurement": "viability, T/C", "setting": "compound 0.001 µM", "result": "93.5% [middle of 4 runs]"}, {"measurement": "viability, T/C", "setting": "compound 0.00316 µM", "result": "110% [middle of 4 runs]"}, {"measurement": "viability, T/C", "setting": "compound 0.01 µM", "result": "91% [middle of 4 runs]"}, {"measurement": "viability, T/C", "setting": "compound 0.0316 µM", "result": "99.3% [middle of 4 runs]"}, {"measurement": "viability, T/C", "setting": "compound 0.1 µM", "result": "97.2% [middle of 4 runs]"}, {"measurement": "IC50", "setting": "curve of compound", "result": "> 100", "unit": "nM"}]}, {"smiles": "C#Cc1c(F)ccc2cc(O)cc(-c3ncc4c(N5CC6CCC(C5)N6)nc(OCC56CCCN5CC(F)C6)nc4c3F)c12", "note": "(stereo unspecified) + CC(Nc1ncnc2nc[nH]c12)c1cc2cccc(Cl)c2c(=O)n1-c1ccccc1", "values": [{"measurement": "IC50", "setting": "[1]", "result": "> 10000", "unit": "nM"}, {"measurement": "IC50", "setting": "[2]", "result": "> 10000", "unit": "nM"}, {"measurement": "IC50", "setting": "[3]", "result": "> 10000", "unit": "nM"}, {"measurement": "IC50", "setting": "[4]", "result": "> 10000", "unit": "nM"}, {"measurement": "IC50", "setting": "curve of first compound, second compound 3.16 µM", "result": 4950, "unit": "nM"}, {"measurement": "IC50", "setting": "curve of first compound, second compound 10 µM", "result": "< 31.6", "unit": "nM"}, {"measurement": "viability, T/C", "setting": "[5]", "result": 104, "unit": "%"}, {"measurement": "viability, T/C", "setting": "[6]", "result": 94.7, "unit": "%"}, {"measurement": "viability, T/C", "setting": "second compound 0.0316 µM, first compound 0.316 µM", "result": 92.3, "unit": "%"}, {"measurement": "viability, T/C", "setting": "second compound 0.0316 µM, first compound 1 µM", "result": 92.3, "unit": "%"}, {"measurement": "viability, T/C", "setting": "second compound 0.0316 µM, first compound 3.16 µM", "result": 90.5, "unit": "%"}, {"measurement": "viability, T/C", "setting": "second compound 0.0316 µM, first compound 10 µM", "result": 62.8, "unit": "%"}, {"measurement": "viability, T/C", "setting": "[7]", "result": 96.5, "unit": "%"}, {"measurement": "viability, T/C", "setting": "[8]", "result": 91.2, "unit": "%"}, {"measurement": "viability, T/C", "setting": "second compound 0.1 µM, first compound 0.316 µM", "result": 88.6, "unit": "%"}, {"measurement": "viability, T/C", "setting": "second compound 0.1 µM, first compound 1 µM", "result": 90.4, "unit": "%"}, {"measurement": "viability, T/C", "setting": "second compound 0.1 µM, first compound 3.16 µM", "result": 81.2, "unit": "%"}, {"measurement": "viability, T/C", "setting": "second compound 0.1 µM, first compound 10 µM", "result": 57.1, "unit": "%"}, {"measurement": "viability, T/C", "setting": "[9]", "result": 78.7, "unit": "%"}, {"measurement": "viability, T/C", "setting": "[10]", "result": 67.7, "unit": "%"}, {"measurement": "viability, T/C", "setting": "second compound 0.316 µM, first compound 0.316 µM", "result": 70.8, "unit": "%"}, {"measurement": "viability, T/C", "setting": "second compound 0.316 µM, first compound 1 µM", "result": 83.6, "unit": "%"}, {"measurement": "viability, T/C", "setting": "second compound 0.316 µM, first compound 3.16 µM", "result": 75.2, "unit": "%"}, {"measurement": "viability, T/C", "setting": "second compound 0.316 µM, first compound 10 µM", "result": 54.5, "unit": "%"}, {"measurement": "viability, T/C", "setting": "[11]", "result": 68, "unit": "%"}, {"measurement": "viability, T/C", "setting": "[12]", "result": 72.8, "unit": "%"}, {"measurement": "viability, T/C", "setting": "second compound 1 µM, first compound 0.316 µM", "result": 63.7, "unit": "%"}, {"measurement": "viability, T/C", "setting": "second compound 1 µM, first compound 1 µM", "result": 70.5, "unit": "%"}, {"measurement": "viability, T/C", "setting": "second compound 1 µM, first compound 3.16 µM", "result": 62, "unit": "%"}, {"measurement": "viability, T/C", "setting": "second compound 1 µM, first compound 10 µM", "result": 52.1, "unit": "%"}, {"measurement": "viability, T/C", "setting": "second compound 3.16 µM, first compound 0.0316 µM", "result": 63.4, "unit": "%"}, {"measurement": "viability, T/C", "setting": "second compound 3.16 µM, first compound 0.1 µM", "result": 57.5, "unit": "%"}, {"measurement": "viability, T/C", "setting": "second compound 3.16 µM, first compound 0.316 µM", "result": 55.3, "unit": "%"}, {"measurement": "viability, T/C", "setting": "second compound 3.16 µM, first compound 1 µM", "result": 60, "unit": "%"}, {"measurement": "viability, T/C", "setting": "second compound 3.16 µM, first compound 3.16 µM", "result": 54.3, "unit": "%"}, {"measurement": "viability, T/C", "setting": "second compound 3.16 µM, first compound 10 µM", "result": 43, "unit": "%"}, {"measurement": "viability, T/C", "setting": "second compound 10 µM, first compound 0.0316 µM", "result": 39.2, "unit": "%"}, {"measurement": "viability, T/C", "setting": "second compound 10 µM, first compound 0.1 µM", "result": 39.8, "unit": "%"}, {"measurement": "viability, T/C", "setting": "second compound 10 µM, first compound 0.316 µM", "result": 35.5, "unit": "%"}, {"measurement": "viability, T/C", "setting": "second compound 10 µM, first compound 1 µM", "result": 40.4, "unit": "%"}, {"measurement": "viability, T/C", "setting": "second compound 10 µM, first compound 3.16 µM", "result": 38.6, "unit": "%"}, {"measurement": "viability, T/C", "setting": "second compound 10 µM, first compound 10 µM", "result": 28.2, "unit": "%"}]}, {"smiles": "Cn1ncnc1[C@H]1c2n[nH]c(=O)c3cc(F)cc(c23)N[C@@H]1c1ccc(F)cc1", "note": "+ CC(Nc1ccc2c(c1)OCCn1cc(N3C(=O)OCC3C(F)F)nc1-2)C(N)=O", "values": [{"measurement": "IC50", "setting": "curve of first compound, second compound 0.00316 µM", "result": "> 100", "unit": "nM"}, {"measurement": "IC50", "setting": "curve of first compound, second compound 0.01 µM", "result": "> 100", "unit": "nM"}, {"measurement": "IC50", "setting": "[1]", "result": "> 100", "unit": "nM"}, {"measurement": "IC50", "setting": "[2]", "result": 86.2, "unit": "nM"}, {"measurement": "IC50", "setting": "[3]", "result": 42.4, "unit": "nM"}, {"measurement": "IC50", "setting": "[4]", "result": 51.6, "unit": "nM"}, {"measurement": "viability, T/C", "setting": "second compound 0.00316 µM, first compound 0.000316 µM", "result": 93.1, "unit": "%"}, {"measurement": "viability, T/C", "setting": "second compound 0.00316 µM, first compound 0.001 µM", "result": 87.6, "unit": "%"}, {"measurement": "viability, T/C", "setting": "second compound 0.00316 µM, first compound 0.00316 µM", "result": 87.3, "unit": "%"}, {"measurement": "viability, T/C", "setting": "second compound 0.00316 µM, first compound 0.01 µM", "result": 96.8, "unit": "%"}, {"measurement": "viability, T/C", "setting": "second compound 0.00316 µM, first compound 0.0316 µM", "result": 72.2, "unit": "%"}, {"measurement": "viability, T/C", "setting": "second compound 0.00316 µM, first compound 0.1 µM", "result": 55.4, "unit": "%"}, {"measurement": "viability, T/C", "setting": "second compound 0.01 µM, first compound 0.000316 µM", "result": 90, "unit": "%"}, {"measurement": "viability, T/C", "setting": "second compound 0.01 µM, first compound 0.001 µM", "result": 99.3, "unit": "%"}, {"measurement": "viability, T/C", "setting": "second compound 0.01 µM, first compound 0.00316 µM", "result": 81, "unit": "%"}, {"measurement": "viability, T/C", "setting": "second compound 0.01 µM, first compound 0.01 µM", "result": 85.6, "unit": "%"}, {"measurement": "viability, T/C", "setting": "second compound 0.01 µM, first compound 0.0316 µM", "result": 76.3, "unit": "%"}, {"measurement": "viability, T/C", "setting": "second compound 0.01 µM, first compound 0.1 µM", "result": 56.5, "unit": "%"}, {"measurement": "viability, T/C", "setting": "second compound 0.0316 µM, first compound 0.000316 µM", "result": 107, "unit": "%"}, {"measurement": "viability, T/C", "setting": "second compound 0.0316 µM, first compound 0.001 µM", "result": 88.9, "unit": "%"}, {"measurement": "viability, T/C", "setting": "second compound 0.0316 µM, first compound 0.00316 µM", "result": 83, "unit": "%"}, {"measurement": "viability, T/C", "setting": "second compound 0.0316 µM, first compound 0.01 µM", "result": 83.5, "unit": "%"}, {"measurement": "viability, T/C", "setting": "[5]", "result": 74.5, "unit": "%"}, {"measurement": "viability, T/C", "setting": "[6]", "result": 47.3, "unit": "%"}, {"measurement": "viability, T/C", "setting": "second compound 0.1 µM, first compound 0.000316 µM", "result": 99.5, "unit": "%"}, {"measurement": "viability, T/C", "setting": "second compound 0.1 µM, first compound 0.001 µM", "result": 77.4, "unit": "%"}, {"measurement": "viability, T/C", "setting": "second compound 0.1 µM, first compound 0.00316 µM", "result": 72.4, "unit": "%"}, {"measurement": "viability, T/C", "setting": "second compound 0.1 µM, first compound 0.01 µM", "result": 80.2, "unit": "%"}, {"measurement": "viability, T/C", "setting": "[7]", "result": 75.6, "unit": "%"}, {"measurement": "viability, T/C", "setting": "[8]", "result": 45.5, "unit": "%"}, {"measurement": "viability, T/C", "setting": "second compound 0.316 µM, first compound 0.000316 µM", "result": 93.4, "unit": "%"}, {"measurement": "viability, T/C", "setting": "second compound 0.316 µM, first compound 0.001 µM", "result": 73.6, "unit": "%"}, {"measurement": "viability, T/C", "setting": "second compound 0.316 µM, first compound 0.00316 µM", "result": 73.9, "unit": "%"}, {"measurement": "viability, T/C", "setting": "second compound 0.316 µM, first compound 0.01 µM", "result": 67.5, "unit": "%"}, {"measurement": "viability, T/C", "setting": "[9]", "result": 52.4, "unit": "%"}, {"measurement": "viability, T/C", "setting": "[10]", "result": 40.6, "unit": "%"}, {"measurement": "viability, T/C", "setting": "second compound 1 µM, first compound 0.000316 µM", "result": 73.7, "unit": "%"}, {"measurement": "viability, T/C", "setting": "second compound 1 µM, first compound 0.001 µM", "result": 73.4, "unit": "%"}, {"measurement": "viability, T/C", "setting": "second compound 1 µM, first compound 0.00316 µM", "result": 68.7, "unit": "%"}, {"measurement": "viability, T/C", "setting": "second compound 1 µM, first compound 0.01 µM", "result": 67, "unit": "%"}, {"measurement": "viability, T/C", "setting": "[11]", "result": 56, "unit": "%"}, {"measurement": "viability, T/C", "setting": "[12]", "result": 41.3, "unit": "%"}]}]}
